The nature of the data set: physchem.

In brackets after ≈: the same amount, converted by molar mass. Counter-ions that a name gives are not always drawn.

For orientation: solubility means the concentration that dissolves in the medium under given conditions. Higher therefore signals much dissolved substance. Turning to `NC(=O)C[C@H](N)C(=O)NC1CCN(c2nc3c(cc2F)c(=O)c(C(=O)O)cn3-c2ccc(F)cc2F)C1` (stereo partly drawn) [Example 41, 7-(3-L-Asparagine-amino-1-pyrrolidinyl)-1-(2,4-difluorophenyl)-6-fluoro-1,4-dihydro-4-oxo-1,8-naphthyridine-3-carboxylic acid hydrochloride], the solubility runs as follows: (pH 7.4) 400 µg/mL; (water) > 35000 µg/mL.

Take `CSCC[C@H](NC(=O)[C@@H](N)CC(C)C)C(=O)NC1CCN(c2nc3c(cc2F)c(=O)c(C(=O)O)cn3-c2ccc(F)cc2F)C1` (stereo partly drawn) [Example 55p, 7-(3-Leu-Met-amino-1-pyrrolidinyl)-6-fluoro-1-(2,4-difluorophenyl)-1,4-dihydro-4-oxo-1,8-naphthyridine-3-carboxylic acid]: the solubility was determined as 60 µg/mL (≈ 0.0925 mM) (pH 7.4) and 23000 µg/mL (≈ 35.5 mM) (water).

For `CCC[C@H](NC(=O)[C@H](C)N)C(=O)NC1CCN(c2nc3c(cc2F)c(=O)c(C(=O)O)cn3-c2ccc(F)cc2F)C1` (stereo partly shown) [Example 55b, 7-(3-Ala-Nval-amino-1-pyrrolidinyl)-6-fluoro-1-(2,4-difluorophenyl)-1,4-dihydro-4-oxo-1,8-naphthyridine-3-carboxylic acid], the solubility was 1030 µg/mL (≈ 1.79 mM) (pH 7.4) and 26000 µg/mL (≈ 45.3 mM) (water).

On to `CC(C)C(N)C(=O)NC1CCN(c2nc3c(cc2F)c(=O)c(C(=O)O)cn3-c2ccc(F)cc2F)C1` (stereo not shown) [Example 19], for which the solubility runs as follows: (pH 7.4) 410 µg/mL (≈ 0.814 mM); (water) > 10000 µg/mL.

As to `CC(C)C[C@H](NC(=O)[C@H](C)N)C(=O)NC1CCN(c2nc3c(cc2F)c(=O)c(C(=O)O)cn3-c2ccc(F)cc2F)C1` (stereo partly drawn) [Example 55r, 7-(3-Ala-Leu-amino-1-pyrrolidinyl)-6-fluoro-1-(2,4-difluorophenyl)-1,4-dihydro-4-oxo-1,8-naphthyridine-3-carboxylic acid], the solubility is 2000 µg/mL (≈ 3.4 mM) (pH 7.4) and 26000 µg/mL (≈ 44.2 mM) (water).

On to `N[C@@H](CC(=O)O)C(=O)NC1CCN(c2nc3c(cc2F)c(=O)c(C(=O)O)cn3-c2ccc(F)cc2F)C1` (stereo partly drawn) [Example 45, 7-(3-L-Asp-amino-1-pyrrolidinyl)-1-(2,4-difluorophenyl)-6-fluoro-1,4-dihydro-4-oxo-1,8-naphthyridine-3-carboxylic acid hydrochloride], for which the solubility reads like this: (pH 7.4) 2400 µg/mL; (water) 4100 µg/mL.

`CCC[C@H](NC(=O)CN)C(=O)NC1CCN(c2nc3c(cc2F)c(=O)c(C(=O)O)cn3-c2ccc(F)cc2F)C1` (stereo partly shown) [Example 52] yielded a solubility (pH 7.4) of 80 µg/mL (≈ 0.143 mM) and a solubility (water) of 6890 µg/mL (≈ 12.3 mM).

`CSCC[C@H](NC(=O)[C@@H](N)CCSC)C(=O)NC1CCN(c2nc3c(cc2F)c(=O)c(C(=O)O)cn3-c2ccc(F)cc2F)C1` (stereo partly drawn) [Example 55o, 7-(3-Met-Met-amino-1-pyrrolidinyl)-6-fluoro-1-(2,4-difluorophenyl)-1,4-dihydro-4-oxo-1,8-naphthyridine-3-carboxylic acid]: the solubility by setting is: (pH 7.4) 310 µg/mL (≈ 0.465 mM); (water) 22000 µg/mL (≈ 33 mM).

In the case of `CC(C)C[C@H](NC(=O)[C@@H](N)CC(C)C)C(=O)NC1CCN(c2nc3c(cc2F)c(=O)c(C(=O)O)cn3-c2ccc(F)cc2F)C1` (stereo partly drawn) [Example 55q, 7-(3-Leu-Leu-amino-1-pyrrolidinyl)-6-fluoro-1-(2,4-difluorophenyl)-1,4-dihydro-4-oxo-1,8-naphthyridine-3-carboxylic acid], the solubility reads like this: (pH 7.4) 190 µg/mL (≈ 0.301 mM); (water) 19000 µg/mL (≈ 30.1 mM).

Turning to `NC1CCN(c2nc3c(cc2F)c(=O)c(C(=O)O)cn3-c2ccc(F)cc2)C1` (stereo not shown) [A, 7-(3-amino-1-pyrrolidinyl)-6-fluoro-1-(4-fluorophenyl)-1,4-dihydro-4-oxo-1,8-naphthyridine-3-carboxylic acid, reference compound], the solubility came out at 14 µg/mL (≈ 0.0362 mM) (pH 7.4) and 1400 µg/mL (≈ 3.62 mM) (water).

For `CSCC[C@H](NC(=O)[C@H](C)N)C(=O)NC1CCN(c2nc3c(cc2F)c(=O)c(C(=O)O)cn3-c2ccc(F)cc2F)C1` (stereo partly drawn) [Example 55n, 7-(3-Ala-Met-amino-1-pyrrolidinyl)-6-fluoro-1-(2,4-difluorophenyl)-1,4-dihydro-4-oxo-1,8-naphthyridine-3-carboxylic acid], the solubility is, setting by setting: (pH 7.4) 2500 µg/mL (≈ 4.12 mM); (water) 20000 µg/mL (≈ 33 mM).

The values are drawn from EP0360258B1, “Amino acid quinoline and naphthyridine derivatives” (ABBOTT LABORATORIES, priority 1988, dated 1990).
